Columns and labels:
blackgrass [1] = test: Test C postemergence; format: in vivo, Alopecurus myosuroides; details: Alopecurus myosuroides, post-emergence, 240 h, 10 days, read-out: Plant response rating, Blackgrass
Method in brief: (§1)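 Test material, in non-phytotoxic solvent with surfactant, was sprayed on the soil directly after seeding (preemergence) or on young plants of 2–10 cm with one to two leaves (postemergence). Greenhouse, 10 days; 0–100 visual control scale.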

corn [2] = test: Test C postemergence; format: in vivo, Zea mays; details: Zea mays, post-emergence, 240 h, 10 days
Method in brief: as §1

ryegrass, Italian [3] = test: Test C postemergence; format: in vivo, Lolium multiflorum; details: 10 days
Method in brief: as §1

horseweed = test: Test C postemergence; format: in vivo, Erigeron canadensis; details: 10 days
Method in brief: as §1

ragweed [4] = test: Test C postemergence; format: in vivo, Ambrosia artemisiifolia; details: 10 days
Method in brief: as §1

oat, wild [5] = test: Test C preemergence; format: in vivo, Avena fatua; details: 0 to 100 scale (0 no effect, 100 complete control)
Method in brief: as §1

wheat [6] = test: Test C postemergence; format: in vivo, Triticum aestivum; details: 10 days
Method in brief: as §1

pigweed, palmer [7] = test: Test C postemergence; format: in vivo, Amaranthus palmeri; details: 10 days
Method in brief: as §1

barnyardgrass [8] = test: Test C postemergence; format: in vivo, Echinochloa crusgalli; details: 10 days
Method in brief: as §1

pigweed, palmer [9] = test: Test C preemergence; format: in vivo, Amaranthus palmeri; details: 0 to 100 scale (0 no effect, 100 complete control)
Method in brief: as §1

soybean [10] = test: Test C postemergence; format: in vivo, Glycine max; details: 10 days
Method in brief: as §1

kochia [11] = test: Test C preemergence; format: in vivo, Bassia scoparia; details: 0 to 100 scale (0 no effect, 100 complete control)
Method in brief: as §1

corn [12] = test: Test C preemergence; format: in vivo, Zea mays; details: 0 to 100 scale (0 no effect, 100 complete control)
Method in brief: as §1

ducksalad = test: Test D flooded paddy test; format: in vivo, Heteranthera limosa; details: 250 g ai/ha, applied to paddy water, visual rating after 13 to 14 days, scale 0 to 100 (0 no effect, 100 complete control)
Method in brief: (§2)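 Compounds go straight into paddy water over 2-leaf plants in pots flooded to 3 cm. Greenhouse holding lasts 13 to 14 days. Injury is scored by eye against controls from 0 (none) to 100 (complete control).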

barnyardgrass [13] = test: Test C preemergence; format: in vivo, Echinochloa crusgalli; details: 0 to 100 scale (0 no effect, 100 complete control)
Method in brief: as §1

wheat [14] = test: Test C preemergence; format: in vivo, Triticum aestivum; details: 0 to 100 scale (0 no effect, 100 complete control)
Method in brief: as §1

green foxtail [15] = test: Test C postemergence; format: in vivo, Setaria viridis; details: 10 days
Method in brief: as §1

rice = test: Test D flooded paddy test; format: in vivo, Oryza sativa; details: 250 g ai/ha, applied to paddy water, visual rating after 13 to 14 days, scale 0 to 100 (0 no effect, 100 complete control)
Method in brief: as §2

ryegrass, Italian [16] = test: Test C preemergence; format: in vivo, Lolium multiflorum; details: 0 to 100 scale (0 no effect, 100 complete control)
Method in brief: as §1

kochia [17] = test: Test C postemergence; format: in vivo, Bassia scoparia; details: 10 days
Method in brief: as §1

blackgrass [18] = test: Test C preemergence; format: in vivo, Alopecurus myosuroides; details: 0 to 100 scale (0 no effect, 100 complete control)
Method in brief: as §1

green foxtail [19] = test: Test C preemergence; format: in vivo, Setaria viridis; details: 0 to 100 scale (0 no effect, 100 complete control)
Method in brief: as §1

barnyardgrass [20] = test: Test D flooded paddy test; format: in vivo, Echinochloa crus-galli; details: 250 g ai/ha, applied to paddy water, visual rating after 13 to 14 days, scale 0 to 100 (0 no effect, 100 complete control)
Method in brief: as §2

ragweed [21] = test: Test C preemergence; format: in vivo, Ambrosia artemisiifolia; details: 0 to 100 scale (0 no effect, 100 complete control)
Method in brief: as §1

oat, wild [22] = test: Test C postemergence; format: in vivo, Avena fatua; details: 10 days
Method in brief: as §1

sedge, umbrella = test: Test D flooded paddy test; format: in vivo, Cyperus difformis; details: 250 g ai/ha, applied to paddy water, visual rating after 13 to 14 days, scale 0 to 100 (0 no effect, 100 complete control)
Method in brief: as §2

soybean [23] = test: Test C preemergence; format: in vivo, Glycine max; details: 0 to 100 scale (0 no effect, 100 complete control)
Method in brief: as §1

[24] = 125 g ai/ha, postemergence, 0 to 100 scale (0 no effect, 100 complete control)
[25] = Postemergence, 500 g ai/ha, visual 0 to 100 scale (0 no effect, 100 complete control)
[26] = 125 g ai/ha, postemergence, 0 to 100 scale, 0 no effect, 100 complete control
[27] = Preemergence, 500 g ai/ha, visual rating after 10 days
[28] = Test C, preemergence, 125 g ai/ha

## COc1cc(-n2cnc(C(C)C)n2)cc(C(=O)N2C[C@H](C)Oc3c(Cl)cccc32)c1OC [Compound 194, [(2S)-8-chloro-2-methyl-2,3-dihydro-1,4-benzoxazin-4-yl]-[5-(3-isopropyl-1,2,4-triazol-1-yl)-2,3-dimethoxy-phenyl]methanone]
Blackgrass [1]; [24]
  pest or weed control at 125 g/ha: 0%
Blackgrass [1]; [25]
  pest or weed control at 500 g/ha: 30%
Corn [2]; [24]
  Corn plant response rating (crop injury, 0 = no effect, 100 = complete kill) at 125 g/ha: 10%
Corn [2]; [25]
  Corn plant response rating (crop injury, 0 = no effect, 100 = complete kill) at 500 g/ha: 20%
ryegrass, Italian [3]; [26]
  Plant response rating, Ryegrass, Italian: 30
ryegrass, Italian [3]; [25]
  Plant response rating, Ryegrass, Italian: 70
horseweed; [26]
  Plant response rating, Horseweed: 0
horseweed; [25]
  Plant response rating, Horseweed: 0
Ragweed [4]; [26]
  Plant response rating, Ragweed: 0
Ragweed [4]; [25]
  Plant response rating, Ragweed: 50
oat, wild [5]; [27]
  Plant response rating, Oat, Wild: 90
oat, wild [5]; [28]
  Oat, Wild plant response rating: 20
Wheat [6]; [26]
  Plant response rating, Wheat: 20
Wheat [6]; [25]
  Plant response rating, Wheat: 20
pigweed, palmer [7]; [26]
  Plant response rating, Pigweed, Palmer: 0
pigweed, palmer [7]; [25]
  Plant response rating, Pigweed, Palmer: 20
Barnyardgrass [8]; [26]
  Plant response rating, Barnyardgrass: 10
Barnyardgrass [8]; [25]
  Plant response rating, Barnyardgrass: 30
pigweed, palmer [9]; [27]
  Plant response rating, Pigweed, Palmer: 30
pigweed, palmer [9]; [28]
  Pigweed, Palmer plant response rating: 20
Soybean [10]; [26]
  Plant response rating, Soybean: 90
Soybean [10]; [25]
  Plant response rating, Soybean: 90
Kochia [11]; [27]
  Plant response rating, Kochia: 0
Kochia [11]; [28]
  Kochia plant response rating: 0
Corn [12]; [27]
  Plant response rating, Corn: 30
Corn [12]; [28]
  Corn plant response rating: 0
ducksalad
  Plant response rating, Ducksalad (Flood): 0
Barnyardgrass [13]; [27]
  Plant response rating, Barnyardgrass: 70
Barnyardgrass [13]; [28]
  Barnyardgrass plant response rating: 10
Wheat [14]; [27]
  Plant response rating, Wheat: 50
Wheat [14]; [28]
  Wheat plant response rating: 0
Green foxtail [15]; [26]
  Plant response rating, Foxtail, Green: 10
Green foxtail [15]; [25]
  Plant response rating, Foxtail, Green: 50
rice
  Plant response rating, Rice (Flood): 0
ryegrass, Italian [16]; [27]
  Plant response rating, Ryegrass, Italian: 90
ryegrass, Italian [16]; [28]
  Ryegrass, Italian plant response rating: 70
Kochia [17]; [26]
  Plant response rating, Kochia: 10
Kochia [17]; [25]
  Plant response rating, Kochia: 80
Blackgrass [18]; [27]
  Plant response rating, Blackgrass: 80
Blackgrass [18]; [28]
  Blackgrass plant response rating: 20
Green foxtail [19]; [27]
  Plant response rating, Foxtail, Green: 100
Green foxtail [19]; [28]
  Foxtail, Green plant response rating: 70
Barnyardgrass [20]
  Plant response rating, Barnyardgrass (Flood): 0
Ragweed [21]; [27]
  Plant response rating, Ragweed: 20
Ragweed [21]; [28]
  Ragweed plant response rating: 20
oat, wild [22]; [26]
  Plant response rating, Oat, Wild: 0
oat, wild [22]; [25]
  Plant response rating, Oat, Wild: 20
sedge, umbrella
  Plant response rating, Sedge, Umbrella (Flood): 0
Soybean [23]; [27]
  Plant response rating, Soybean: 10
Soybean [23]; [28]
  Soybean plant response rating: 10

From US20260262643A1, “HERBICIDAL BENZOXAZINES” (FMC CORPORATION, priority 2022, published 2026)
